PubChem BioAssay (NCI)
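All cell lines were grown in 96-well plates and treated with compound for 48 hours. The concentration for full growth arrest is given as TGI.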

Assays:
Assay in all cases: NCI anticancer screen, dose series, 48 h
[1] = system: OVCAR-8 ovarian
[2] = system: SK-MEL-5 melanoma
[3] = system: SNB-75 CNS
[4] = system: SF-295 CNS
[5] = system: T-47D breast
[6] = system: A498 renal
[7] = system: LOX IMVI melanoma
[8] = system: PC-3 prostate
[9] = system: 786-0 renal
[10] = system: OVCAR-3 ovarian
[11] = system: HS 578T breast
[12] = system: EKVX NSCLC
[13] = system: HCT-15 colon
[14] = system: CCRF-CEM leukemia
[15] = system: NCI-H226 lung
[16] = system: K-562 leukemia
[17] = system: SW-620 colon
[18] = system: MDA-MB-231 breast
[19] = system: NCI-H522 lung
[20] = system: A549 NSCLC
[21] = system: NCI-H460 lung
[22] = system: HL-60(TB) leukemia
[23] = system: U251 CNS
[24] = system: IGROV1 ovarian
[25] = system: MDA-N
[26] = system: SK-MEL-2 melanoma
[27] = system: NCI/ADR-RES ovarian
[28] = system: DU-145 prostate
[29] = system: UACC-62 melanoma
[30] = system: OVCAR-4 ovarian
[31] = system: MALME-3M melanoma
[32] = system: HCC-2998 colon
[33] = system: M14 melanoma
[34] = system: COLO 205 colon
[35] = system: SNB-19 CNS
[36] = system: UACC-257 melanoma
[37] = system: MDA-MB-435
[38] = system: UO-31 renal
[39] = system: HOP-62 NSCLC
[40] = system: NCI-H23 lung
[41] = system: MCF7 breast
[42] = system: SF-539 CNS
[43] = system: KM12 colon
[44] = system: ACHN renal
[45] = system: SK-OV-3 ovarian
[46] = system: SN12C renal
[47] = system: CAKI-1 renal
[48] = system: SK-MEL-28 melanoma
[49] = system: RXF 393 renal
[50] = system: HT29 colon
[51] = system: SF-268 CNS
[52] = system: TK-10 renal
[53] = system: HCT-116 colon
[54] = system: BT-549 breast
[55] = system: OVCAR-5 ovarian
[56] = system: MOLT-4 leukemia
[57] = system: SR leukemia
[58] = system: HOP-92 NSCLC
[59] = system: RPMI-8226 leukemia

Nc1cnc(Nc2cccc3ccccc23)o1
TGI [1]: > 10 µM
TGI [2]: > 10 µM
TGI [3]: > 10 µM
TGI [4]: > 10 µM
TGI [5]: > 10 µM
TGI [6]: > 10 µM
TGI [7]: > 10 µM
TGI [8]: > 10 µM
TGI [9]: > 10 µM
TGI [10]: > 10 µM
TGI [11]: > 10 µM
TGI [12]: > 10 µM
TGI [13]: > 10 µM
TGI [14]: > 10 µM
TGI [15]: > 10 µM
TGI [16]: > 10 µM
TGI [17]: > 10 µM
TGI [18]: > 10 µM
TGI [19]: > 10 µM
TGI [20]: > 10 µM
TGI [21]: > 10 µM
TGI [22]: > 10 µM
TGI [23]: > 10 µM
TGI [24]: > 10 µM
TGI [25]: > 10 µM
TGI [26]: > 10 µM
TGI [27]: > 10 µM
TGI [28]: > 10 µM
TGI [29]: > 10 µM
TGI [30]: > 10 µM
TGI [31]: > 10 µM
TGI [32]: > 10 µM
TGI [33]: > 10 µM
TGI [34]: > 10 µM
TGI [35]: > 10 µM
TGI [36]: > 10 µM
TGI [37]: > 10 µM
TGI [38]: > 10 µM
TGI [39]: > 10 µM
TGI [40]: > 10 µM
TGI [41]: > 10 µM
TGI [42]: > 10 µM
TGI [43]: > 10 µM
TGI [44]: > 10 µM
TGI [45]: > 10 µM
TGI [46]: > 10 µM
TGI [47]: > 10 µM
TGI [48]: > 10 µM
TGI [49]: > 10 µM
TGI [50]: > 10 µM
TGI [51]: > 10 µM
TGI [52]: > 10 µM
TGI [53]: > 10 µM

COC(=O)C1=CC(=O)OC1(OO)c1ccc(Br)cc1 (stereo unspecified)
TGI [1]: > 100 µM
TGI [2]: > 100 µM
TGI [54]: > 100 µM
TGI [3]: > 100 µM
TGI [4]: > 100 µM
TGI [5]: > 100 µM
TGI [7]: > 100 µM
TGI [8]: > 100 µM
TGI [9]: > 100 µM
TGI [10]: > 100 µM
TGI [12]: > 100 µM
TGI [13]: > 100 µM
TGI [14]: > 100 µM
TGI [15]: > 100 µM
TGI [16]: > 100 µM
TGI [17]: > 100 µM
TGI [18]: > 100 µM
TGI [19]: > 100 µM
TGI [20]: > 100 µM
TGI [21]: > 100 µM
TGI [22]: > 100 µM
TGI [23]: > 100 µM
TGI [55]: > 100 µM
TGI [24]: > 100 µM
TGI [25]: > 100 µM
TGI [26]: > 100 µM
TGI [27]: > 100 µM
TGI [28]: > 100 µM
TGI [29]: > 100 µM
TGI [30]: > 100 µM
TGI [31]: > 100 µM
TGI [32]: > 100 µM
TGI [33]: > 100 µM
TGI [56]: > 100 µM
TGI [34]: > 100 µM
TGI [35]: > 100 µM
TGI [36]: > 100 µM
TGI [37]: > 100 µM
TGI [38]: > 100 µM
TGI [40]: > 100 µM
TGI [57]: > 100 µM
TGI [41]: > 100 µM
TGI [42]: > 100 µM
TGI [58]: > 100 µM
TGI [43]: > 100 µM
TGI [44]: > 100 µM
TGI [45]: > 100 µM
TGI [46]: > 100 µM
TGI [47]: > 100 µM
TGI [48]: > 100 µM
TGI [49]: > 100 µM
TGI [50]: > 100 µM
TGI [52]: > 100 µM
TGI [53]: > 100 µM

C[Si](C)(C)CNC(=O)OCc1ccccc1
TGI [1]: > 100 µM
TGI [2]: > 100 µM
TGI [54]: > 100 µM
TGI [3]: > 100 µM
TGI [4]: > 100 µM
TGI [5]: 72.4 µM
TGI [6]: > 100 µM
TGI [7]: > 100 µM
TGI [8]: > 100 µM
TGI [9]: > 100 µM
TGI [59]: > 100 µM
TGI [10]: > 100 µM
TGI [12]: > 100 µM
TGI [13]: > 100 µM
TGI [14]: > 100 µM
TGI [15]: > 100 µM
TGI [16]: > 100 µM
TGI [17]: > 100 µM
TGI [18]: > 100 µM
TGI [19]: > 100 µM
TGI [20]: > 100 µM
TGI [21]: > 100 µM
TGI [22]: > 100 µM
TGI [23]: > 100 µM
TGI [55]: > 100 µM
TGI [24]: > 100 µM
TGI [25]: > 100 µM
TGI [26]: > 100 µM
TGI [27]: > 100 µM
TGI [28]: > 100 µM
TGI [29]: > 100 µM
TGI [30]: > 100 µM
TGI [32]: > 100 µM
TGI [33]: > 100 µM
TGI [34]: > 100 µM
TGI [35]: > 100 µM
TGI [36]: > 100 µM
TGI [37]: > 100 µM
TGI [38]: > 100 µM
TGI [39]: > 100 µM
TGI [40]: > 100 µM
TGI [57]: > 100 µM
TGI [41]: > 100 µM
TGI [42]: > 100 µM
TGI [58]: > 100 µM
TGI [43]: > 100 µM
TGI [44]: > 100 µM
TGI [45]: > 100 µM
TGI [46]: > 100 µM
TGI [47]: > 100 µM
TGI [48]: > 100 µM
TGI [50]: > 100 µM
TGI [51]: > 100 µM
TGI [52]: > 100 µM
TGI [53]: > 100 µM

CC1(C)COC(c2ccccc2-c2ccccc2)=N1
TGI [1]: > 100 µM
TGI [54]: > 100 µM
TGI [4]: > 100 µM
TGI [5]: > 100 µM
TGI [6]: > 100 µM
TGI [8]: > 100 µM
TGI [9]: > 100 µM
TGI [59]: > 100 µM
TGI [10]: > 100 µM
TGI [12]: > 100 µM
TGI [13]: > 100 µM
TGI [14]: > 100 µM
TGI [15]: > 100 µM
TGI [16]: > 100 µM
TGI [17]: > 100 µM
TGI [18]: > 100 µM
TGI [19]: > 100 µM
TGI [20]: > 100 µM
TGI [21]: > 100 µM
TGI [22]: > 100 µM
TGI [23]: > 100 µM
TGI [55]: > 100 µM
TGI [24]: > 100 µM
TGI [25]: > 100 µM
TGI [26]: > 100 µM
TGI [27]: > 100 µM
TGI [28]: > 100 µM
TGI [29]: > 100 µM
TGI [30]: > 100 µM
TGI [31]: > 100 µM
TGI [32]: > 100 µM
TGI [33]: > 100 µM
TGI [56]: > 100 µM
TGI [34]: > 100 µM
TGI [35]: > 100 µM
TGI [36]: > 100 µM
TGI [37]: > 100 µM
TGI [38]: > 100 µM
TGI [39]: > 100 µM
TGI [40]: > 100 µM
TGI [57]: > 100 µM
TGI [41]: > 100 µM
TGI [42]: > 100 µM
TGI [58]: > 100 µM
TGI [43]: > 100 µM
TGI [44]: > 100 µM
TGI [45]: > 100 µM
TGI [46]: > 100 µM
TGI [47]: > 100 µM
TGI [48]: > 100 µM
TGI [49]: > 100 µM
TGI [50]: > 100 µM
TGI [51]: > 100 µM
TGI [53]: > 100 µM

COc1cccc(-c2nc(-c3cnccn3)n(C3OC(CO)C(O)C3O)n2)c1 (stereo unspecified)
TGI [1]: > 100 µM
TGI [2]: > 100 µM
TGI [54]: > 100 µM
TGI [3]: > 100 µM
TGI [4]: > 100 µM
TGI [5]: > 100 µM
TGI [7]: > 100 µM
TGI [8]: > 100 µM
TGI [9]: > 100 µM
TGI [10]: > 100 µM
TGI [12]: > 100 µM
TGI [13]: > 100 µM
TGI [14]: > 100 µM
TGI [16]: > 100 µM
TGI [17]: > 100 µM
TGI [18]: > 100 µM
TGI [19]: > 100 µM
TGI [20]: > 100 µM
TGI [21]: > 100 µM
TGI [22]: > 100 µM
TGI [23]: > 100 µM
TGI [55]: > 100 µM
TGI [24]: > 100 µM
TGI [25]: > 100 µM
TGI [27]: > 100 µM
TGI [28]: > 100 µM
TGI [29]: > 100 µM
TGI [30]: > 100 µM
TGI [32]: > 100 µM
TGI [33]: > 100 µM
TGI [56]: > 100 µM
TGI [34]: > 100 µM
TGI [35]: > 100 µM
TGI [36]: > 100 µM
TGI [37]: > 100 µM
TGI [38]: > 100 µM
TGI [39]: > 100 µM
TGI [40]: > 100 µM
TGI [57]: > 100 µM
TGI [41]: > 100 µM
TGI [42]: > 100 µM
TGI [58]: > 100 µM
TGI [43]: > 100 µM
TGI [45]: > 100 µM
TGI [46]: > 100 µM
TGI [48]: > 100 µM
TGI [50]: > 100 µM
TGI [51]: > 100 µM
TGI [52]: > 100 µM
TGI [53]: > 100 µM
